# According to publication PMC10765884, “MC180295 is a highly potent and selective CDK9 inhibitor with preclinical in vitro and in vivo efficacy in cancer” (Clinical Epigenetics, 2024):
# pIC50: −log10 of the molar value.
# Legend:
# HS936T = test: Growth inhibition (cell counting, day 5); type: cell-based; settings: Melanoma
# Procedure: (§1) The live-cell assay for GFP reactivation in YB5 cells was done as previously described. Cells were treated with a single dose of drug 24 h after seeding at low density, and GFP fluorescence measured in a Millipore Guava flow cytometer (EMD, Millipore) instrument, or by imaging in a Cytation instrument (Agilent). Cancer cell lines (listed in Additional file 1: Fig. S1A) were obtained from ATCC or the Temple/Fox Chase Cellular Repository and cultured in the recommended medium. To measure growth inhibition, cells were seeded in 96-well plates at 40% confluency. Fresh medium was changed the next day and drugs were added directly. Drug-free fresh medium was changed on the fourth day. The cells were collected on day 5 by trypsin, suspended in medium, mixed with trypan blue (Thermo Fisher Scientific) (1:1 ratio), and counted using a LUNA II automated cell counter. Each sample was counted at least three times, and average numbers used for the analysis. Each treatment condition was performed in biological triplicates.
# K562 = test: Growth inhibition (cell counting, day 5); type: cell-based; settings: Homo sapiens, Leukemia
# Procedure: as §1
# KG-1 = test: Growth inhibition (cell counting, day 5); type: cell-based; settings: Homo sapiens, Leukemia
# Procedure: as §1
# LnCap = test: Growth inhibition (cell counting, day 5); type: cell-based; settings: Homo sapiens, Prostate
# Procedure: as §1
# MALME-3M = test: Growth inhibition (cell counting, day 5); type: cell-based; settings: Homo sapiens, Melanoma
# Procedure: as §1
# PC3 = test: Growth inhibition (cell counting, day 5); type: cell-based; settings: Homo sapiens, PC-3; Prostate
# Procedure: as §1
# WM3912 = test: Growth inhibition (cell counting, day 5); type: cell-based; settings: Melanoma
# Procedure: as §1
# WM3918 = test: Growth inhibition (cell counting, day 5); type: cell-based; settings: Melanoma
# Procedure: as §1
# sk-mel28 = test: Growth inhibition (cell counting, day 5); type: cell-based; settings: Homo sapiens, SK-MEL-28; Melanoma
# Procedure: as §1
# [1] = Drug toxicity: body weights and complete blood counts in tumor-bearing mice; type: in vivo; settings: MV4-11 model, NSG mice, Fig. S4D
# HT29 cells = test: HT29 colon cancer xenograft in NSG mice; type: in vivo; settings: HT29 s.c. in NSG mice, 20 mg/kg i.p. q.o.d.
# Procedure: Fig. 3 Antitumor, survival, and metabolic effects of MC180295 and its enantiomers, MC180379 and MC180380. A Antitumor effects of MC180295, MC180379, and MC180380. NSG mice were inoculated (s.c.) with 2 × 10^6 SW48 cells. Eleven days later, when tumors were palpable, 20 mg/kg MC180295, MC180379, MC180380, or vehicle were administered (i.p.) every other day (q.o.d.). Tumor sizes were measured using a caliper. […] C Antitumor effects of MC180379 and MC180380. NSG mice were inoculated (s.c.) with 1 × 10^6 HT29 cells. Twelve days later, when tumors were palpable, 20 mg/kg MC180379, MC180380, or vehicle were administered (i.p.) q.o.d. Tumor sizes were measured using a caliper. D HT29-xenografted mouse survival following (i.p.) q.o.d. dosing with 20 mg/kg MC180379 or MC180380. E NSG mice were inoculated (i.p.) with 5 × 10^5 MV4-11-luc cells. Four days later, when substantial tumor burden was evident by bioluminescence imaging, MC180379, MC180380, or vehicle were administered (i.p.) q.o.d at 20 mg/kg. Luciferase expression was quantified and calculated. F Mouse survival in days. […] G In vitro liver microsome stability and rat hepatocyte/Sprague–Dawley stability assay comparing MC180379 to MC180380. The dog breed was beagle and the mouse microsome strain was CD-1. […] Significances were calculated using log-rank (Mantel-Cox) or Student’s t tests. […]
SMILES,pIC50 (HS936T),pIC50 (K562),pIC50 (KG-1),pIC50 (LnCap),pIC50 (MALME-3M),pIC50 (PC3),pIC50 (WM3912),pIC50 (WM3918),pIC50 (sk-mel28),body weights [1],survival (HT29 cells)
Nc1nc(N[C@H]2C[C@@H]3CC[C@H]2C3)sc1C(=O)c1ccccc1[N+](=O)[O-] (relative stereo) [MC180295],6.41,6.30,6.83,6.96,6.46,6.67,6.92,6.82,6.38,did not affect NSG mouse body weights,
Nc1nc(N[C@H]2C[C@@H]3CC[C@H]2C3)sc1C(=O)c1ccccc1[N+](=O)[O-] [MC180380],,,,,,,,,,,extending survival longer than MC180379
